Measurements: patent US20070270339A1, “Use of GPCR54 Ligands for the Treatment of Infertility” (SERONO, INC., priority 2004, published 2007)
No end group written: not given here.

Key:
GPCR54 = GPCR54 (Homo sapiens, UniProt Q969F8); conditions: peptides from placental tissue extract, Kotani et al. 2001; cited from earlier work
LH and FSH release = assay: in vivo comparison of GnRH and Kiss1 on release of LH and FSH over 45 minutes (FIG. 1); set-up: species or system rat; conditions: single administration, compared with GnRH
Method: All experiments were carried out around between 13 h and 14 h. […] Blood samples (100 ul) were removed before (−15 and 0 min) and after (15, 30, 45 min) injection with the automated blood sampler. Each blood sample was replaced with an equivalent volume of the heparin-containing (20 IU/ml) sterile saline. Plasma was extracted and stored at −20° C. until determination of LH and FSH by enzyme-linked immunoassay and radioimmunoassay, respectively.
Changes of plasma LH and FSH concentration (ng/ml) after injection were obtained as the area under the curve (AUC). It was first determined for each animal by calculating the sum of post-treatment hormonal levels at 15, 30 and 45 min each of which was subtracted by basal levels (an average of pre-treatment levels at −15 and 0 min), then averaged as a group. Statistical differences among treatment groups were determined by one-way ANOVA followed by LSD as a post-hoc test. An initial data set is shown in FIGS. 1A-P. Further data are described in Examples 2 and 3 below.

[1] = test system: gonadotropic axis (plasma LH and FSH); assay: i.c.v. injection of Kiss-1: plasma LH and FSH levels; assay type: in vivo, rat
Method: (§1) All experiments were conducted in female Sprague-Dawley rats (180-200 g) obtained from Charles River (MA), fed with standard laboratory chow and water ad libitum, kept on 12 h light-dark in temperature and humidity controlled room.
Implantation of intracerebroventricular cannula for i.c.v. experiment. The head of anesthetized rats was placed in the stereotaxic instrument and oriented such that the bregma and lambda was horizontal. An incision was made along the sagittal midline in an anterior-to-posterior direction. A hole, 1.5 mm in diameter, was drilled through the skull 0.9 mm posterior and 0.0 mm lateral to bregma. A 25 mm×22 gauge stainless steel cannula was lowered about 7 mm until cerebrospinal fluid could be aspirated from the 3rd ventricle via a 1 cc syringe connected to the cannula by a 5 cm section of Silastic tubing. After sealing the outer opening of the cannula, it was anchored to the skull with three stainless steel screws and dental acrylic cement then the incision was closed. Rats were allowed to recover for 14 days.
(§2) Ovariectomy and implantation of estrogen-containing capsule. To remove daily variance of plasma estrogen levels due to variable estrous cycle, both ovaries were removed under anesthesia through incision at the animal's back. Right before closure of the incision, two estrogen-containing capsules (0.5 mg/coupsule, Innovative Research of America, FL) were inserted subcutaneously at the middle of animal's back to maintain consistent basal physiological levels of plasma estrogen. Rats were allowed to recover for 7 days.
Jugular cannula insertion and tethering to automated blood sampler. The right jugular vein of anesthetized rats was exposed through a neck incision. A retaining suture was tied to the exposed vein at rostral end to manipulate the vein. The caudal end of the vein was clamped with a small forceps to prevent bleeding while a cannula, a polyethene tubing (OD 1.0 mm), was inserted in the middle of the vein through a 0.5 mm incision made with iris scissors. After the insertion of the cannula, a suture was tied around the vein at the caudal end to secure the cannula within the vein. […]
(§3) Changes of plasma LH and FSH concentration (ng/ml) after injection were obtained as the area under the curve (AUC). It was first determined for each animal by calculating the sum of post-treatment hormonal levels at 15, 30 and 45 min each of which was subtracted by basal levels (an average of pre-treatment levels at −15 and 0 min), then averaged as a group. Statistical differences among treatment groups were determined by one-way ANOVA followed by LSD as a post-hoc test. […]

[2] = test system: gonadotropic axis (plasma LH and FSH); assay: i.v. injection of Kiss-1: plasma LH and FSH levels, with or without Antide pretreatment; assay type: in vivo, rat
Method: as §1, §2
Jugular cannula insertion and tethering to automated blood sampler. The right jugular vein of anesthetized rats was exposed through a neck incision. A retaining suture was tied to the exposed vein at rostral end to manipulate the vein. The caudal end of the vein was clamped with a small forceps to prevent bleeding while a cannula, a polyethene tubing (OD 1.0 mm), was inserted in the middle of the vein through a 0.5 mm incision made with iris scissors. After the insertion of the cannula, a suture was tied around the vein at the caudal end to secure the cannula within the vein. The incision at the neck was closed with wound clips and the outer end of the cannula was attached to a tubing of an automated blood sampler (Bioanalytical Systems Inc., IN) filled with heparin-containing (20 IU/ml) sterile saline. The automated blood sampler consisting of a turning cage equipped with a food box and a water bottle, a balanced arm, a pumping system, a fraction collector and a controller was used to collect blood samples. A rat inserted of a jugular cannula was tethered to the balanced arm via a loosely-fitting plastic collar. The cage rotates to the counter direction of animal's movement to prevent twisting of the jugular cannula connected to a tubing of the sampler, as well as to allow the rat to eat, drink and move freely during the course of the blood collection. Rats were allowed to recover for 24 hours.
All experiments were carried out around between 13 h and 14 h. […]
as §3

Sequence of GPCR54 (Q969F8 whole entry): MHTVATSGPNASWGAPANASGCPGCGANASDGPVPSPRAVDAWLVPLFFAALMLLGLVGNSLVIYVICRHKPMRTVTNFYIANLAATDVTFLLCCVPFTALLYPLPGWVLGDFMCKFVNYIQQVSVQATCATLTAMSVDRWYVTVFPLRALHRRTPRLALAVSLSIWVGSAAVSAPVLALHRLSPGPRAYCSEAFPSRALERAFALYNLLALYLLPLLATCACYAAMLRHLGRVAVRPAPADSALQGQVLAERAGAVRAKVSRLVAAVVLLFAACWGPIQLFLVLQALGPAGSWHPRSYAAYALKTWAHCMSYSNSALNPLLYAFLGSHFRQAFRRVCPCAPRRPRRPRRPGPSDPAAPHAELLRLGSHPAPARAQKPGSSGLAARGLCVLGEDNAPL

Substance: SEQ ID NO:6: 13-amino acid kisspeptin from Kiss-1 with RF-amide at the C-terminus (Kotani et al.) (LPNYNWNSFGLRF-NH2; listed as Homo sapiens)
- agonist activity at GPCR54 (GPCR54): agonists of GPCR54

Substance: Tyr-Asn-Trp-Asn-Ser-Phe-Gly-Leu-Arg-Phe-NH2 (YNWNSFGLRF-NH2; listed as Homo sapiens) [Kiss-1]
- LH and FSH production (LH and FSH release): sufficient to drive LH and FSH production similar to GnRH
- i.c.v. dose to yield FSH response as fraction of i.v. dose ([1]; FSH, i.c.v. versus i.v.): 1/100
- i.c.v. dose to yield LH response as fraction of i.v. dose ([1]; LH, i.c.v. versus i.v.): 1/25
- LH release ([1]; i.c.v. injection, estrogen-treated ovariectomized rats): dose-dependently stimulated LH release
- FSH levels ([1]; i.c.v. injection, higher dose not as effective as the lower dose): significant increase of FSH levels
- plasma FSH levels ([2]; i.v. injection, estrogen-treated ovariectomized rats): dose-dependent increases
- plasma LH levels ([2]; i.v. injection, estrogen-treated ovariectomized rats, with the exception of LH response at the highest dose): dose-dependent increases

Substance: GnRH: GnRH, a positive control, obtained from Sigma (QHWSYGLRPG; Gonadoliberin-1; UniProt P01148 24-33, looked up) [reference compound]
- circulating gonadotropins levels ([2]; GnRH positive control, estrogen-treated ovariectomized rats): induced elevations of circulating gonadotropins levels

Substance: Antide [reference compound]
- prevention of GnRH- and Kiss-1-induced elevations of circulating gonadotropins levels ([2]; Antide pretreatment 15 min before injection of 400 ug/kg of Kiss-1): successfully prevented

Substance: SEQ ID NO: 4: 54-amino acid kisspeptin from Kiss-1 with RF-amide at the C-terminus (Kotani et al.) (GTSLSPPPESSGSPQQPGLSAPHSRQIPAPQGAVLVQREKDLPNYNWNSFGLRF-NH2; listed as Homo sapiens)
- agonist activity at GPCR54 (GPCR54): agonists of GPCR54

Substance: SEQ ID NO:5: 14-amino acid kisspeptin from Kiss-1 with RF-amide at the C-terminus (Kotani et al.) (DLPNYNWNSFGLRF-NH2; listed as Homo sapiens)
- agonist activity at GPCR54 (GPCR54): agonists of GPCR54
